Laboratory results from patent USRE47589E1, “Phosphoramidate compounds and methods of use” (NuCana plc, priority 2003, dated 2019).

Legend:
HIV-1 = conditions: cited from earlier work; for EC50: d4T phosphoramidates, prior art, read-out: 50% effective doses vs HIV-1
[1] = tested on: human colon cancer cell line (HT115); assay: MTT cytotoxicity assay, colon cancer cell line; assay type: cell-based; conditions: for EC50: Homo sapiens, HT115, read-out: EC50/μM Colon HT115, MTT assay, compounds added to cells over 1 to 3 days
Experimental: (§1) The compounds include those whose preparations are described above and compounds made by preparative methods corresponding to the methods described above.
(§2) Compounds were diluted over a range of concentrations and added to cells over 1 to 3 days. The cytotoxity was determined using a MTT assay at the end of each experiment.

[2] = tested on: human breast cancer cell line (MDA MB 231); assay: MTT cytotoxicity assay, breast cancer cell line; assay type: cell-based; conditions: for EC50: Homo sapiens, MDA-MB-231, read-out: EC50/μM Breast MDA MB231
Experimental: as §1, §2

[3] = tested on: human prostate cancer cell line (PC-3); assay: MTT cytotoxicity assay, prostate cancer cell line; assay type: cell-based; conditions: for EC50: Homo sapiens, read-out: EC50/μM Prostate PC-3
Experimental: as §1, §2

SMILES	EC50 (HIV-1)	potency boost of (10) over (9) (HIV-1; equivalent phosphoramidates of d4T, McGuigan et al, AVCC, 1998)	EC50 [1]	EC50 [2]	EC50 [3]	times more potent than (7), colon cancer cell line HT115 ([1]; ratio of 50% growth inhibition concentrations versus methyl ester (7))	fold more active than (7), breast cancer ([2]; ratio versus methyl ester (7))	times more potent than (7), prostate cancer cell line PC-3 ([3]; ratio versus methyl ester (7))
COC(=O)C(C)NP(=O)(OCC1C=CC(n2cc(C)c(=O)[nH]c2=O)O1)Oc1ccccc1 (stereo not shown) [(9)]	0.075 µM	–	–	–	–	–	–	–
Cc1cn(C2C=CC(COP(=O)(NC(C)C(=O)OCc3ccccc3)Oc3ccccc3)O2)c(=O)[nH]c1=O (stereo not shown) [(10)]	–	~4 fold	–	–	–	–	–	–
COC(=O)C(C)(C)NP(=O)(OCC1C=CC(n2cc(C)c(=O)[nH]c2=O)O1)Oc1ccccc1 (stereo not shown) [(12)]	0.29 µM	–	–	–	–	–	–	–
COC(=O)C(C)NP(=O)(OCC1C=CC(n2cc(C)c(=O)[nH]c2=O)O1)Oc1ccc(C(F)(F)F)cc1 (stereo not shown) [(13)]	0.01 µM	–	–	–	–	–	–	–
O=C(OCc1ccccc1)C1(NP(=O)(OC[C@H]2O[C@@H](n3cc(/C=C/Br)c(=O)[nH]c3=O)CC2O)Oc2ccc([N+](=O)[O-])cc2)CCCC1 (stereo partly drawn) [Example 21, (E)-5-(2-Bromovinyl)-2′-deoxyuridine-5′-[para-nitrophenyl-(benzoxy-α,α-cycloleucinyl)]-phosphate]	–	–	17.2 µM	8.4 µM	2.2 µM	–	–	–
COC(=O)C1(NP(=O)(OC[C@H]2O[C@@H](n3cc(/C=C/Br)c(=O)[nH]c3=O)CC2O)Oc2ccc(F)cc2)CCCC1 (stereo partly drawn) [Example 22, (E)-5-(2-Bromovinyl)-2′-deoxyuridine-5′-[para-fluorophenyl-(methoxy-α,α-cycloleucinyl)]-phosphate]	–	–	59.7 µM	57 µM	51 µM	–	–	–
CCOC(=O)C1(NP(=O)(OC[C@H]2O[C@@H](n3cc(/C=C/Br)c(=O)[nH]c3=O)CC2O)Oc2ccc(F)cc2)CCCC1 (stereo partly drawn) [Example 23, (E)-5-(2-Bromovinyl)-2′-deoxyuridine-5′-[para-fluorophenyl-(ethoxy-α,α-cycloleucinyl)]-phosphate]	–	–	18.1 µM	9.9 µM	2.7 µM	–	–	–
O=C(OCc1ccccc1)C1(NP(=O)(OC[C@H]2O[C@@H](n3cc(/C=C/Br)c(=O)[nH]c3=O)CC2O)Oc2ccc(F)cc2)CCCC1 (stereo partly drawn) [Example 24, (E)-5-(2-Bromovinyl)-2′-deoxyuridine-5′-[para-fluorophenyl-(benzoxy-α,α-cycloleucinyl)]-phosphate]	–	–	17 µM	9.4 µM	3.7 µM	–	–	–
COC(=O)C(C)(C)NP(=O)(OC[C@H]1O[C@@H](n2cc(/C=C/Br)c(=O)[nH]c2=O)CC1O)Oc1ccccc1 (stereo partly drawn) [Example 26, (E)-5-(2-bromovinyl)2′-deoxyuridine-5′-[phenyl-(methoxy-α,α-dimethylglycinyl)]-phosphate]	–	–	77.9 µM	41.1 µM	1.5 µM	–	–	–
CCOC(=O)C(C)(C)NP(=O)(OC[C@H]1O[C@@H](n2cc(/C=C/Br)c(=O)[nH]c2=O)CC1O)Oc1ccccc1 (stereo partly drawn) [Example 27, (E)-5-(2-bromovinyl)-2′-deoxyuridine-5′-[phenyl-(ethoxy-α,α-dimethylglycinyl)]-phosphate]	–	–	39.7 µM	218 µM	76.1 µM	–	–	–
CCOC(=O)C1(NP(=O)(OC[C@H]2O[C@@H](n3cc(/C=C/Br)c(=O)[nH]c3=O)CC2O)Oc2ccc(C(F)(F)F)cc2)CCCC1 (stereo partly drawn) [Example 29, (E)-5-(2-Bromovinyl)-2′-deoxyuridine-5′-[para-trifluorophenyl-(ethoxy-α,α-cycloleucinyl)]-phosphate]	–	–	15.1 µM	45.6 µM	4.3 µM	–	–	–
COC(=O)C1(NP(=O)(OC[C@H]2O[C@@H](n3cc(/C=C/Br)c(=O)[nH]c3=O)CC2O)Oc2ccc(Cl)cc2)CCCC1 (stereo partly drawn) [Example 32, (E)-5-(2-Bromovinyl)-2′-deoxyuridine-5′-[para-chlorophenyl-(methoxy-α,α-cycloleucinyl)]-phosphate]	–	–	99.3 µM	2.6 µM	52.2 µM	–	–	–
CCOC(=O)C1(NP(=O)(OC[C@H]2O[C@@H](n3cc(/C=C/Br)c(=O)[nH]c3=O)CC2O)Oc2ccc(Cl)cc2)CCCC1 (stereo partly drawn) [Example 33, (E)-5-(2-Bromovinyl)-2′-deoxyuridine-5′-[para-chlorophenyl-(ethoxy-α,α-cycloleucinyl)]-phosphate]	–	–	97.9 µM	12 µM	83.2 µM	–	–	–
O=C(OCc1ccccc1)C1(NP(=O)(OC[C@H]2O[C@@H](n3cc(/C=C/Br)c(=O)[nH]c3=O)CC2O)Oc2ccc(Cl)cc2)CCCC1 (stereo partly drawn) [Example 34, (E)-5-(2-Bromovinyl)-2′-deoxyuridine-5′-[para-chlorophenyl-(benzoxy-α,α-cycloleucinyl)]-phosphate]	–	–	8.9 µM	3.9 µM	6.3 µM	–	–	–
COC(=O)[C@H](CC(C)C)NP(=O)(OC[C@H]1O[C@@H](n2cc(/C=C/Br)c(=O)[nH]c2=O)CC1O)Oc1ccccc1 (stereo partly drawn) [Example 35, (E)-5-(2-Bromovinyl)-2′-deoxyuridine-5′-[phenyl-(methoxy-L-leucinyl)]-phosphate]	–	–	7.7 µM	18.5 µM	75.7 µM	–	–	–
CC(C)C[C@H](NP(=O)(OC[C@H]1O[C@@H](n2cc(/C=C/Br)c(=O)[nH]c2=O)CC1O)Oc1ccccc1)C(=O)OCc1ccccc1 (stereo partly drawn) [Example 37, (E)-5-(2-Bromovinyl)-2′-deoxyuridine-5′-[phenyl-(benzoxy-L-leucinyl)]-phosphate]	–	–	7 µM	2.8 µM	7.16 µM	–	–	–
CC(C)C[C@H](NP(=O)(OC[C@H]1O[C@@H](n2cc(/C=C/Br)c(=O)[nH]c2=O)CC1O)Oc1ccc([N+](=O)[O-])cc1)C(=O)OCc1ccccc1 (stereo partly drawn) [Example 38, (E)-5-(2-Bromovinyl)-2′-deoxyuridine-5′-(para-nitrophenyl-(benzoxy-L-leucinyl)]-phosphate]	–	–	10.7 µM	6.3 µM	7.2 µM	–	–	–
CC(C)C[C@H](NP(=O)(OC[C@H]1O[C@@H](n2cc(/C=C/Br)c(=O)[nH]c2=O)CC1O)Oc1ccc(Cl)cc1)C(=O)OCc1ccccc1 (stereo partly drawn) [Example 39, (E)-5-(2-Bromovinyl)-2′-deoxyuridine-5′-[para-chlorophenyl-(benzoxy-L-leucinyl)]-phosphate]	–	–	288 µM	4.3 µM	193 µM	–	–	–
C[C@H](NP(=O)(OC[C@H]1O[C@@H](n2ccc(N)nc2=O)C(F)(F)C1O)Oc1ccc(Cl)cc1)C(=O)OCc1ccccc1 (stereo partly drawn) [Example 40, Gemcitabine-[para-chlorophenyl-(benzoxy-L-alaninyl)]-phosphate]	–	–	16.1 µM	9.2 µM	15.4 µM	–	–	–
CC(C)(NP(=O)(OC[C@H]1O[C@@H](n2ccc(N)nc2=O)C(F)(F)C1O)Oc1ccc(Cl)cc1)C(=O)OCc1ccccc1 (stereo partly drawn) [Example 41, Gemcitabine-[para-chlorophenyl-(benzoxy-α,α-dimethylglycinyl)]-phosphate]	–	–	317 µM	3.1 µM	68.8 µM	–	–	–
COC(=O)C(C)(C)NP(=O)(OC[C@H]1O[C@@H](n2cc(/C=C/Br)c(=O)[nH]c2=O)CC1O)Oc1ccc(Cl)cc1 (stereo partly drawn) [Example 42, (E)-5-(2-bromovinyl)-2′-deoxyuridine-5′-[4-chlorophenyl-(methoxy-α,α-dimethylglycinyl)]-phosphate]	–	–	183 µM	8.7 µM	442 µM	–	–	–
CCOC(=O)C(C)(C)NP(=O)(OC[C@H]1O[C@@H](n2cc(/C=C/Br)c(=O)[nH]c2=O)CC1O)Oc1ccc(Cl)cc1 (stereo partly drawn) [Example 43, (E)-5-(2-bromovinyl)-2′-deoxyuridine-5′-[4-chlorophenyl-(ethoxy-α,α-dimethylglycinyl)]-phosphate]	–	–	174 µM	5.9 µM	1.15 µM	–	–	–
CC(C)(NP(=O)(OC[C@H]1O[C@@H](n2cc(/C=C/Br)c(=O)[nH]c2=O)CC1O)Oc1ccc(Cl)cc1)C(=O)OCc1ccccc1 (stereo partly drawn) [Example 44, (E)-5-(2-bromovinyl)-2′-deoxyuridine-5′-[4-chlorophenyl-(benzoxy-α,α-dimethylglycinyl)]-phosphate]	–	–	4.5 µM	2.3 µM	9.12 µM	–	–	–
COC(=O)C(C)(C)NP(=O)(OC[C@H]1O[C@@H](n2cc(/C=C/Br)c(=O)[nH]c2=O)CC1O)Oc1ccc([N+](=O)[O-])cc1 (stereo partly drawn) [Example 45, (E)-5-(2-bromovinyl)-2′-deoxyuridine-5′-[4-nitrophenyl-(methoxy-α,α-dimethylglycinyl)]-phosphate]	–	–	24.7 µM	9.4 µM	223 µM	–	–	–
CCOC(=O)C(C)(C)NP(=O)(OC[C@H]1O[C@@H](n2cc(/C=C/Br)c(=O)[nH]c2=O)CC1O)Oc1ccc([N+](=O)[O-])cc1 (stereo partly drawn) [Example 46, (E)-5-(2-bromovinyl)-2′-deoxyuridine-5′-[4-nitrophenyl-(ethoxy-α,α-dimethylglycinyl)]-phosphate]	–	–	224 µM	2 µM	82.4 µM	–	–	–
CC(C)(NP(=O)(OC[C@H]1O[C@@H](n2cc(/C=C/Br)c(=O)[nH]c2=O)CC1O)Oc1ccc([N+](=O)[O-])cc1)C(=O)OCc1ccccc1 (stereo partly drawn) [Example 47, (E)-5-(2-bromovinyl)-2′-deoxyuridine-5′-[4-nitrophenyl-(benzoxy-α,α-dimethylglycinyl)]-phosphate]	–	–	16.7 µM	4.5 µM	27.2 µM	–	–	–
CC(C)(NP(=O)(OCC1OC(n2cc(/C=C/Br)c(=O)[nH]c2=O)CC1O)Oc1ccc(C(F)(F)F)cc1)C(=O)OCc1ccccc1 (stereo not drawn) [Example 48, (E)-5-(2-bromovinyl)-2′-deoxyuridine-5′-[para-(trifluoromethyl)phenyl-(benzoxy-α,α-dimethylglycinyl)]-phosphate]	–	–	7 µM	1.3 µM	0.61 µM	35 fold	60 fold	254 fold
